The record followed here is patent US20040122059A1, “PPAR-gamma ligands in the treatment of asthma and allergies” (The Penn State Research Foundation, priority 2002, published 2004).

Assay [1] relates to murine model of allergic asthma. The assay is described as follows: OVA-induced allergic asthma, lung histopathology (asthma severity). The settings on record: for Asthma severity (total histopathology score 0-6): 0.12 μM Ciglitazone/daily per mouse in diet from one week before induction. It is filed as in vivo, Balb/c mice. The procedure: Asthma was induced in the mice as described (Zhang et al. 1999. Immunity 11: 473). Briefly mice were injected intraperitoneally with 10 µg of OVA in Alum twice on day 1 and 5 of asthma induction (primed). On day 10, mice were challenged intranasally with OVA in sterile saline, every day for three days (40 μg total). In an alternative protocol the mice were only challenged intranasally (unprimed) with OVA for three consecutive days. Asthma induction was effective with or without the use of immunization (Alum and OVA injections). Two weeks after asthma induction (the day after the last intranasal challenge) the mice were sacrificed. Two different Ciglitazone treatments were done. […] The mice continued on these diets for the remainder of the study. […] Asthma severity. The lungs were fixed in formalin and sent to the Penn State University Animal Diagnostic Laboratories for sectioning and staining with hematoxylin and eosin. The sections were scored blindly on a scale of 0 to 3 for inflammation and 0-3 for epithelial thickening. […] The inflammation and epithelial scores for each section were added together for a total histopathology score ranging from 0-6. The results are presented as means±SEMs. […] In this model, mice are initially exposed to OVA in complex with Alum intraperitoneally, then challenged intranasally with OVA. This protocol usually leads to increased inflammatory cell infiltration into the lung, thickening of the epithelial cells lining the bronchioles of the lung, mucous secretion and in most cases, increased presence of circulating serum IgE. These symptoms highlight the predominant TH2 nature of this disease. Mice (Balb/c) were primed and with OVA intranasally as described in the Materials and Methods section. Twenty-four hours after the final intranasal challenge, mice were analyzed for immunological symptoms of allergic asthma. […]

The test system of a further assay is splenocytes. Briefly: Antigen specific cytokine production and proliferation of splenocytes from treated mice restimulated in vitro with OVA. It is filed as in vivo, Balb/c mice. The following applies: for Proliferation: [3H]thymidine. The procedure: Measurement of lymphocyte proliferation and cytokine production. Th cells were cultured in 96 well plates for proliferation assays and 24 well plates for supernatants (Corning Costar, Corning, N.Y.). After 72 h, supernatants were collected for ELISAs. For proliferation assays, 0.4 μCi of [3H]thymidine (ICN, Costa Mesa, Calif.) was added to each well and the cells were incubated for an additional 18 h. Radioactive thymidine incorporation was determined by liquid scintillation using a Beta plate Counter. Mouse IL-2, IL-4, IL-5 and IFN-γ production were detected using ELISA kits from Pharmingen, following the instructions provided. […] Asthma was induced in the mice as described (Zhang et al. 1999. Immunity 11: 473). Briefly mice were injected intraperitoneally with 10 µg of OVA in Alum twice on day 1 and 5 of asthma induction (primed). On day 10, mice were challenged intranasally with OVA in sterile saline, every day for three days (40 μg total). In an alternative protocol the mice were only challenged intranasally (unprimed) with OVA for three consecutive days. Asthma induction was effective with or without the use of immunization (Alum and OVA injections). Two weeks after asthma induction (the day after the last intranasal challenge) the mice were sacrificed. Two different Ciglitazone treatments were done. […] The mice continued on these diets for the remainder of the study.

The test system of the next assay is TH2 cells. The assay is described as follows: Cytokine production by TH2-primed DO11.10 CD4+ T cells stimulated with PMA and ionomycin. It is filed as cell-based, mouse. The settings on record: PGJ2 10 mM, CLA 5 mM, 72 h supernatant ELISA. The procedure:
(§1) TH cell cultures. Lymph node and spleen cells from the DO11.10 TCR transgenic mice were removed and CD4 positive cells were isolated using the CD4 Immunocolumns and the manufacturer's instructions (Cedarlane labs, Homby, Canada). CD4 positive T cells (95-98% pure) were cultured in vitro with OVA and mitomycin C treated splenocytes from congenic mice. The cultures were incubated under neutral conditions (TH0 priming) or with rIL-4 and anti-IFN-γ antibodies (TH2 priming), or with rIL-12 (TH1 priming). After 4 days (4d) in culture the cells were collected and dead splenocytes were removed by centrifugation over histopaque. […] T cells were collected and recultured with rIL-2 (Pharmingen) for 3 d to expand the T cells. Cells were then collected, washed and stimulated for proliferation and cytokine synthesis with phorbal myristiyl acetate (PMA, Sigma, St. Louis, Mo.) and ionomycin (Sigma) in the presence of PJG2, conjugated linoleic acid (CLA) or control treated.
(§2) Measurement of lymphocyte proliferation and cytokine production. Th cells were cultured in 96 well plates for proliferation assays and 24 well plates for supernatants (Corning Costar, Corning, N.Y.). After 72 h, supernatants were collected for ELISAs. For proliferation assays, 0.4 μCi of [3H]thymidine (ICN, Costa Mesa, Calif.) was added to each well and the cells were incubated for an additional 18 h. Radioactive thymidine incorporation was determined by liquid scintillation using a Beta plate Counter. Mouse IL-2, IL-4, IL-5 and IFN-γ production were detected using ELISA kits from Pharmingen, following the instructions provided. The ELISA detection limits were 25 pg/ml IL-2, 62 pg/ml IL-4, 312 pg/ml IL-5, and 1000 pg/ml IFN-γ.
(§3) The present inventors decided to test if T cells are direct targets of PPAR-γ ligands. Purified CD4+T cells carrying the transgenic TcR for OVA (DO11.10) were cultured in vitro with OVA and mitomycin C treated splenocytes under neutral conditions (THO priming) or with rIL-4 and anti-IFN-γ antibodies (TH2 priming), or with rIL-12 (TH1 priming). Following 4 days of initial culture, cells were isolated and expanded in rIL-2. These expanded antigen specific T cells were stimulated in the presence or absence of PJG2, a PPAR-γ ligand and cells analyzed for proliferation and cytokine synthesis (Table 1). As previously characterized, cells initially stimulated under TH1 conditions (TH1 cells) secreted more IFN-γ and IL-2 and less IL-4 and IL-5 than those initially stimulated under TH2 conditions (TH2 cells). The TH1 and TH2 cells were greater than 95% CD4+and carried the transgenic TcR (data not shown). The PPAR-γ ligand PGJ2 regulated cytokine production in both TH1 and TH2 cells. PGJ2 inhibited IL-4 and IL-5 production in TH1 cells and inhibited IFN-γ, IL-2, and IL-5 production in TH2 cells (Table 1).
Background: An ELISA detects its analyte on a solid surface through an enzyme-linked reagent.

Another assay has as its system TH1 cells. Briefly: Cytokine production by TH1-primed DO11.10 CD4+ T cells stimulated with PMA and ionomycin. The format is cell-based, mouse. The settings on record: PGJ2 10 mM, CLA 5 mM, 72 h supernatant ELISA. The procedure:
as §1, §2, §3

Setting [2] is: Primed mice, late Ciglitazone treatment.

Values joined by “and” are separate entries in the source; they are usually repeats but may differ in a detail not shown here. Equal entries are not always repeated.

On to `CC1(COc2ccc(CC3SC(=O)NC3=O)cc2)CCCCC1` (stereo not shown) [Ciglitazone], for which the “Asthma severity (total histopathology score 0-6)” value in assay [1] (PRIMED mice (OVA/Alum i.p., then intranasal OVA)) is 1+/−0.3 and 1.0 ± 0.3. The “Asthma severity (total histopathology score 0-6)” value in assay [1] (UNPRIMED mice, intranasal OVA challenge only) was 0.8+/−0.2 and 0.8±0.2. Moreover, in assay [1] (representative lung, Ciglitazone treated), the “Histopathology score of representative lung section (FIG. 1B)” value is recorded as 1. In the assay on splenocytes (Primed mice fed Ciglitazone), the IL-5 is 903 ± 87 pg/mL and the Proliferation is 10649 ± 492 CPM. Further, in the assay on splenocytes (setting [2]), the IFN-γ worked out at 4063 ± 170 pg/mL, the IL-4 came to 395 ± 92 pg/mL, the IL-5 is 875 ± 79 pg/mL and the Proliferation came to 10579 ± 1477 CPM.

In the case of `CCCCC/C=C/C=C1/C(=O)C=C[C@@H]1C/C=C\CCCC(=O)O` [PGJ2, 15-deoxy-Delta(12,14)-prostaglandin J(2)], the IL-4 in the assay with TH2 cells was 1861 ± 28 pg/mL. In the assay on TH1 cells, this compound displayed an IFN-γ of 14370 ± 250 pg/mL and an IL-2 of 512 ± 1 pg/mL.

In the assay with TH2 cells, conjugated linoleic acid [CLA] showed an IFN-γ of 5592 ± 306 pg/mL, an IL-2 of 224 ± 4 pg/mL, an IL-4 of 1863 ± 62 pg/mL and an IL-5 of 240 ± 52 pg/mL. Besides, in the assay with TH1 cells, the IFN-γ stood at 14689 ± 370 pg/mL, the IL-2 was found to be 522 ± 20 pg/mL and the IL-5 came to 150 ± 6 pg/mL.
